A short description of data set [1]: Metabolic stability in dog liver microsomes (DLM). Format: in vitro ADME, Beagle dogs. Particulars: for half-life at 1 µM / microsomal CLint at 1 µM: dog liver microsomes 0.50 mg/mL, NADPH 1 mM, test compound 1 μM, 37° C., pH 7.4, 60 min; for stability in DLM (in words): 1 μM, 0.50 mg protein/mL, 1 mM NADPH, 37 °C, 60 min. The method, then:
(§1) Test Compounds. Compounds were prepared as described above.
DLM Stability. Pooled DLM from adult male Beagle dogs (Xenotech D1000) were used. Microsomal incubations were carried out in multi-well plates. Liver microsomal incubation medium consisted of PBS (100 mM, pH 7.4), MgCl2 (1 mM), and NADPH (1 mM), with 0.50 mg of liver microsomal protein per mL. Control incubations were performed by replacing the NADPH-cofactor system with PBS. Test compounds (1 μM, final solvent concentration 1.0%) were incubated with microsomes at 37° C. with constant shaking. Six time points over 60 minutes were analyzed, with 60 μL aliquots of the reaction mixture being drawn at each time point. The reaction aliquots were stopped by adding 180 μL of cold (4° C.) acetonitrile containing 200 ng/mL tolbutamide and 200 ng/mL labetalol as internal standards (IS), followed by shaking for 10 minutes, and then protein sedimentation by centrifugation at 4,000 rpm for 20 minutes at 4° C. Supernatant samples (80 μL) were diluted with water (240 μL) and analyzed for parent compound remaining using a fit-for-purpose liquid chromatography-tandem mass spectrometry (LC-MS/MS) method.
Data Analysis. The elimination constant (kel), half-life (t1/2), and intrinsic clearance (CLint) were determined in a plot of […] versus time, using linear regression analysis.
A general note: Microsomes from liver hold many membrane-bound enzymes, among them those of drug oxidation.

Another data set concerns the target T1, 5-HT2B receptor (Homo sapiens, UniProt P41595).
T1 construct: expressed in transfected cells; host or cells: HEK293
Kind of data set: Radioligand binding at 5-HT2B ([3H]LSD). The method, then: The binding affinities of disclosed compounds at the ketanserin binding site of the 5-HT2A receptor, the LSD binding site of the 5-HT2B receptor, and the mesulergine binding site of the 5-HT2C receptor were determined in radioligand binding experiments.
Method. The affinity of the test compounds for 5-HT2A, 5-HT2B, and 5-HT2C receptors was determined in radioligand binding experiments with [^3H]ketanserin, [^3H]LSD, and [^3H]mesulergine, respectively, by WuXi AppTec (Hong Kong) Limited, using methods adapted from the literature and under conditions described in Table 7.

For the next data set, the target named is T2, 5-HT2C receptor (Homo sapiens, UniProt P28335).
T2 sequence (P28335 33-458): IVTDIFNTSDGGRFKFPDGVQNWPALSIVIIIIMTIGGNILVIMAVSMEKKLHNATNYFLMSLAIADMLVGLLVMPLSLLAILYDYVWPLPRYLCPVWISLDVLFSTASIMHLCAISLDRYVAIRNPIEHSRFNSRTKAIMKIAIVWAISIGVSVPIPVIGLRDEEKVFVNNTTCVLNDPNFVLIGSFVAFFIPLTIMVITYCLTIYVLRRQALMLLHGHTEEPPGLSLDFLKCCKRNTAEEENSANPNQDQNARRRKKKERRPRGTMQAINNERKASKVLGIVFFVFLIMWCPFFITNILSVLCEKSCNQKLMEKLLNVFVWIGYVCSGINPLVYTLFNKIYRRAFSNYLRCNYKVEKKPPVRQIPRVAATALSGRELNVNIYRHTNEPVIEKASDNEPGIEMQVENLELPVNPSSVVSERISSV
Kind of data set: FLIPR Ca2+ flux functional agonist assay at 5-HT2C. Conditions: for Emax: agonist activity, FLIPR Ca2+ flux, stably transfected cells, at max dose, read-out: 5-HT2C % Act @ Max Dose. Also on record: expressed in transfected cells. It is filed as cell-based. The method, then: Disclosed compounds were tested for agonist activity at several serotonin receptor subtypes (5-HT2A, […], and 5-HT2C) using Ca^2+ flux functional assays, with the results summarized in Table 9.
as §1
Functional Assays at 5-HT2C. Agonist activity at 5-HT2C was determined using a FLIPR Ca^2+ flux assay at Eurofins DiscoverX (Fremont, CA) according to their standard protocols. Briefly, stably transfected cells expressing the human 5-HT2C receptor were grown and plated in a 384-well plate and incubated at 37° C. and 5% CO2 overnight. Assays were performed in 1× Dye Loading Buffer consisting of 1× Dye, 1× Additive A, and 2.5 mM Probenecid in HBSS/20 mM Hepes. Probenecid was prepared fresh. Cells were loaded with dye prior to testing and incubated at 37° C. for 30-60 minutes. After dye loading, cells were removed from the incubator and 10 μL HBSS/20 mM Hepes was added. 3× vehicle was included in the assay buffer. Cells were incubated for 30 mins at room temperature in the dark to equilibrate plate temperature. Intermediate dilution of sample stocks was performed to generate 4× sample in assay buffer. Compound agonist activity was measured on a FLIPR Tetra (MDS). Calcium mobilization was monitored for 2 minutes and 10 μL 4× sample in HBSS/20 mM Hepes was added to the cells 5 seconds into the assay.
(A change in cytosolic calcium serves as a functional read-out for many receptors and channels.)

From patent publication US20260347310A1, “PHENALKYLAMINES AND METHODS OF MAKING AND USING THE SAME” (GILGAMESH PHARMACEUTICALS, INC., priority 2022, published 2026) come the findings set out here.

T1 sequence (P41595 whole entry): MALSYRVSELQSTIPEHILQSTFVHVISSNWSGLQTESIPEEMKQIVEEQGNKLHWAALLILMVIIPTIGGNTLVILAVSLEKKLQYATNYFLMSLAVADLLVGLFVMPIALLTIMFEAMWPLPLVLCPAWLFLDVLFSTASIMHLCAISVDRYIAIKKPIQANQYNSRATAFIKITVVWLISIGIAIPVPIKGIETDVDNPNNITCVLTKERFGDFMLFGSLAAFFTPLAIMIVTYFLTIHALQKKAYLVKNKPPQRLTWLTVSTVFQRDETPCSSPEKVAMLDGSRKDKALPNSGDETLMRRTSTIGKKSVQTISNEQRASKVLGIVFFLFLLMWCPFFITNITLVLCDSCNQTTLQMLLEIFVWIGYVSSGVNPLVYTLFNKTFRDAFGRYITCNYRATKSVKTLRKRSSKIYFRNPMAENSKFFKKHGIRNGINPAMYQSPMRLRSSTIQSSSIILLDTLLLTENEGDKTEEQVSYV

In data set [1], `CCCCCCc1cc(OC)c(C[C@@H](N)CC)cc1OC` [Compound 1S, (S)-1-(4-hexyl-2,5-dimethoxyphenyl)butan-2-amine] displayed a half-life at 1 µM of 22.9 min and an intrinsic metabolic clearance (microsomal CLint) at 1 µM of 60.4 µL/min/mg. Moreover, the inhibitory constant (Ki) at 5-HT2B receptor was 3.1 nM. On 5-HT2C receptor, the EC50 worked out at 3130 nM and the Emax was found to be 106%.

Turning to `CCCCCCc1cc(OC)c(C[C@H](N)CC)cc1OC` [Compound 1R, (R)-1-(4-hexyl-2,5-dimethoxyphenyl)butan-2-amine], in data set [1], the “stability in DLM (in words)” value was “substantially less stable than 1S”, the half-life at 1 µM came out at 11.3 min and the intrinsic clearance (microsomal CLint) at 1 µM came out at 122 µL/min/mg. Also, the “CLint and half-life in DLM (in words)” value in data set [1] (1R versus 1S) was “higher CLint and shorter half-life”. The molecule further returned a Ki at 5-HT2B receptor of 111 nM. In addition, the “fold lower affinity at 5-HT2B” value at 5-HT2B receptor (1R compared to 1S) is reported as ~ 36 fold. Further, at 5-HT2C receptor, the EC50 was 1190 nM and the Emax stood at 104%. Besides, on 5-HT2C receptor (1R compared to 1S, Ca2+ flux), the “fold more potent at 5-HT2C” value was ~ 3 fold.

Consider `CCC(N)Cc1cc(OC)c(CCCCCC(F)(F)F)cc1OC` (racemic) [Compound 2a, 1-(2,5-dimethoxy-4-(6,6,6-trifluorohexyl)phenyl)butan-2-amine], for which, in data set [1], the “stability in DLM (in words)” value is “significantly higher stability compared to 1R and 1S”; the half-life at 1 µM came to 71.3 min; the microsomal CLint at 1 µM worked out at 19.4 µL/min/mg.

One may read the half-life as the time in which the quantity being followed falls by half. The low end stands for rapid decline, the high end for slow decline. A word on the microsomal CLint: it is the capacity of the preparation to metabolise the compound, expressed as a volume cleared per time. Broadly, the Ki is the equilibrium dissociation constant of an inhibitor or competing ligand from its target. A high value points to weaker binding. One may read the EC50 as the concentration needed to bring the measured effect to its halfway point. Read a low EC50 as an effect from little substance.
